Test results: ChEMBL document CHEMBL1121512, “1-[Ethoxyamino)methyl]-1,3,4,5-tetrahydro-7,8-dimethoxy-2-benzoxepins: a new class of antianaphylactic agents” (1980)

Experiments:
Type in all cases: functional
Rattus norvegicus [1] = experiment: % inhibition against anaphylactic response in rat at dose 50 mg/kg administered orally after 60 min; settings: 1 h, route oral
Rattus norvegicus [2] = experiment: % inhibition against anaphylactic response in rat at dose 50 mg/kg administered orally after 120 min; settings: 2 h, route oral
Rattus norvegicus [3] = experiment: % inhibition against anaphylactic response in rat at dose 10 mg/kg administered orally after 60 min; settings: 1 h, route oral

Row | SMILES | inhibition in vivo at 50 mg/kg (Rattus norvegicus [1]) [%] | inhibition in vivo at 50 mg/kg (Rattus norvegicus [2]) [%] | inhibition in vivo at 10 mg/kg (Rattus norvegicus [3]) [%]
1 | COc1cc2c(cc1OC)C(COCCN1CCN(c3ccc(F)cc3)CC1)OCCC2 (stereo unspecified) | 52 | 0 | 
2 | COc1cc2c(cc1OC)C(COCCN1CCN(c3ccccc3OC)CC1)OCCC2 (stereo unspecified) | 100 | 20 | 
3 | COc1cc2c(cc1OC)C(COCCN1CCN(c3ccccn3)CC1)OCCC2 (stereo unspecified) | 94 | 35 | 
4 | COc1cc2c(cc1OC)C(COCCN1CCN(C)CC1)OCCC2 (stereo unspecified) | 0 | 0 | 
5 | COc1cc2c(cc1OC)C(COCCNCCO)OCCC2 (stereo unspecified) | 0 | 0 | 
6 | O=C(O)c1cc(=O)c2c(OCC(O)COc3cccc4oc(C(=O)O)cc(=O)c34)cccc2o1 [CROMOLYN SODIUM] |  |  | 100
